# Assay results from patent publication US20260021167A1, “COMPOSITIONS AND METHODS FOR TREATING OR PREVENTING NEURODEGENERATIVE DISEASES” (Delaware State University, priority 2022, published 2026).
# What was measured:
# PFF-injected mice = test: Behavioral tests overall in PFF-injected mice; assay type: in vivo, mouse; conditions: 10 or 50 mg/kg oral
# Method: (§1) A mouse model of Parkinson's disease is C57BL/6 male or female mice (50% each) injected with 5 μg of mouse PFF at 12 months old, followed by a treatment below for 6-7 weeks: • 1) without PFF injection, followed by vehicle (control, n=7); • 2) PFF injection, followed by vehicle (PFF only: control, n=8); • 3) PFF injection, followed by daily 10 mg/kg Momordin gavage (n=7-8); • 4) PFF injection, followed by daily 50 mg/kg Momordin gavage (n=7-8).
# Behavioral tests were performed using the methods described in Ghosh et al. (Int J Mol Sci. 2022 Apr. 12; 23 (8): 4262) (FIG. 11A).
# PFF-injected old mice [1] = test: Nesting in PFF-injected mice; assay type: in vivo, mouse; conditions: 10 and/or 50 mg/kg oral, vs PFF only
# Method: as §1
# Nesting. A 5×5 cm cotton nesting patch was placed in a clean cage housing a single animal. On the following day, pictures were taken of the condition of the nesting material utilized and analyzed in a blind manner. The ability of an animal to tear up the cotton nesting material and build a nest dictates the activity and motor coordination levels of the animal. Three dimensionally built nest was given as 5 points as the highest score, and a barely touched nesting patch was considered a low score of 1 point. The points were represented on the graph to show any improvement in nesting capabilities across the groups.
# N27 cells [2] = test: Cytotoxicity (LDH) assay after PFF exposure; assay type: cell-based, rat; conditions: N27 cells, PFF treatment; compared to PFF only control
# Method: Cytotoxicity Assay. The lactate dehydrogenase (LDH) is a cytosolic enzyme that is released into the media during cellular stress and increased levels of cytotoxicity. The cytotoxicity assay was measured using reagents from the Pierce LDH Cytotoxicity Assay Kit (88954, Thermo). For the assay, 50 μL of media from each well after PFF exposure, followed by SENP-1 treatment, was put into wells of a new 96-well plate. The LDH reagents were prepared according to the protocol provided, and 50 μL of the LDH reagent was mixed into each well. The total 100 μL of media containing LDH and its reagent were incubated at 37° C. for 30 min, followed by the application of a stop solution. The mixture was analyzed using a spectrophotometer (SpectraMax M5e, Molecular devices) at 490 nm with a reference wavelength of 680 nm.
# In this study, numerous commercially available SENP-1 inhibitors were tested for the recovery effects from preformed fibrils of alpha-synuclein (PFF)-induced PD models in vitro. The screening process includes several SENP-1 inhibitors, including specific SENP-1 inhibitors (e.g., SUMO-2 Aldehyde, Momordin lc, streptonigrin, hinokiflavonem, and siRNAs of SENP-1) and nonspecific SENP-1 inhibitors (e.g., oleanolic acid, gallic acid), in N27 dopaminergic cells after the exposure of PFF for 24 hrs.
# [3] = test system: phosphorylated α-synuclein; test: Western blot of phosphorylated α-synuclein in brain tissue extracts of PFF-injected mice; assay type: in vivo, mouse; conditions: both doses, vs PFF only
# Method: as §1
# Immunoblot Analyses. A total of three protein extractions were performed. In the first extraction, a gentle RIPA buffer containing the low concentration of detergent (25 mM Tris-HCL, 150 mM NaCl, 1% NP-40, 1% sodium deoxycholate and 0.1% SDS) was added with phosphatase inhibitors (100 μL for 10 mL) and 5 mM EDTA. The mixture was sonicated and centrifuged at 14,000 rpm for 10 min. The supernatant was collected for measuring the levels of phosphorylated α-syn, SENP-1 or SUMO-1 conjugated proteins for different groups. […] The primary antibodies pertaining to each protein analyzed were diluted at 1:1000 (p-Ser-129-α-synuclein, Cell signaling; SENP-1, SAB4501345, EMD) and incubated at 4° C. overnight. […] ImageJ was used to analyze specific bands on each blot and measured against the loading control (β-actin) for normalizing each band intensity.
# [4] = low and high dosages (10 or 50 mg/kg)
# N27 cells [5] = test: ROS level (CellROX deep red) after PFF treatment; assay type: cell-based, rat; conditions: compared to PFF only control
# Method: ROS Levels and Thioflavin-T Assessment. The reactive oxygen species (ROS) is a released byproduct during oxidative stress. On the other hand, thioflavin-T is an assay used to understand the level of protein aggregation that can be detrimental to cell survival. In order to assess the level of oxidative stress, all the SENP-1 inhibitors treated cells were incubated in media containing 5 μg/mL of the ROS reagent CellROX deep red reagent (C10422, Thermo Fisher Scientific) and 25 μg/mL of thioflavin-T reagent (CAS: 2390-54-7, Acros Organics) at 37° C. for 30 min. The cells were then washed 3 times with warm phosphate-buffered saline (PBS) without Ca^2+ or Mg^2+ (137 mM NaCl, 2.7 mM KCl, 4.3 mM Na2HPO4, and 1.47 mM KH2PO4), and several images from each well were collected using EVOS FL Cell Imaging Systems (Invitrogen, MA, USA). A minimum of 2 wells were dedicated to each group, and the experiments were repeated 3-4 times independently (total replicated: n=8-10/group). The intensity of red fluorescence corresponding to ROS levels and green labels corresponding to protein aggregation was analyzed by blinded raters using ImageJ.
# PFF-injected old mice [6] = test: Grooming in PFF-injected mice; assay type: in vivo, mouse; conditions: 10 and/or 50 mg/kg oral, vs PFF only
# Method: as §1
# Grooming. Individual pictures of each animal were taken over 3 days and analyzed for grooming capabilities. Additional data were collected over 6 weeks during the gavaging period for PFF-injected mice to monitor whether the mice in all groups performed grooming activities uniformly. The points were averaged at the end of the assessment after the mice were euthanized. The coat conditions of each animal were assessed to correlate motivation and activity levels for each animal. […] The grooming pictures were also analyzed by blinded raters and given a point out of 10, with 1 being a poor/dull coat and 10 being a shiny and healthy-looking coat.
smiles,measurement,setting,value
CC1(C)CC[C@]2(C(=O)O)CC[C@]3(C)C(=CC[C@@H]4[C@@]5(C)CC[C@H](O[C@@H]6O[C@H](C(=O)O)[C@@H](O)[C@H](O[C@@H]7OC[C@@H](O)[C@H](O)[C@H]7O)[C@H]6O)C(C)(C)[C@@H]5CC[C@]43C)[C@@H]2C1 [Momordin lc],behavioral / motor deficits derived from PFF injection,PFF-injected mice,improved the behavioral deficits
same,behavioral / motor deficits derived from PFF injection,PFF-injected mice; listed as Momordin,alleviates severe motor deficits
same,nesting,PFF-injected old mice [1],improves the nesting
same,cytotoxicity derived from PFF (LDH assay),N27 cells [2],significantly reduced the cytotoxicity
same,"phosphorylated α-synuclein in the MB (Western blot, tissue extracts)",[3]; midbrain,reversed
same,"phosphorylated α-synuclein in the STR (Western blot, tissue extracts)",[3]; striatum,reversed
same,safety in mice,[4],safe
same,level of ROS,N27 cells [5],reduced the level of ROS
same,grooming,PFF-injected old mice [6],improves
